# Structures can show the parent of a compound that is named as a salt. Where two headings read alike, the source gives them in different places.
# Tests used:
# [1] = biological target: T1, SARS-CoV-2 PLpro (nsp3 1564–1878) (Severe acute respiratory syndrome coronavirus 2, UniProt P0DTD1); test: biochemical; design: FRET-quenched peptide (Pro3) cleavage by PLpro, 10 min pre-incubation, slope over 20 min, normalised to no-compound control; settings: high concentration screen, read-out: % of control remaining
# [2] = biological target: T1, SARS-CoV-2 PLpro (nsp3 1564–1878); test: biochemical; design: FRET-quenched peptide (Pro3) cleavage by PLpro, 10 min pre-incubation, slope over 20 min, normalised to no-compound control; settings: low concentration screen, read-out: % of control remaining
smiles,measurement,setting,value
COc1cccc2c1cc([N+](=O)[O-])c1c(C(=O)O)cc3c(c12)OCO3 [Aristolochic acid A],remaining activity at 3.75 µM,[1]; Well no.=3081,103%
same,remaining activity at 1.25 µM,[2]; Well no.=3081,106%
CC(=O)N[C@@H]1[C@@H](O)[C@H](O)[C@@H](CO)O[C@@H]1O [N-Acetyl-D-glucosamine],remaining activity at 3.75 µM,[1]; Well no.=6881,95%
same,remaining activity at 1.25 µM,[2]; Well no.=6881,100%
CO[C@H]1/C=C/O[C@@]2(C)Oc3c(C)c(O)c4c(O)c(cc(O)c4c3C2=O)NC(=O)/C(C)=C\C=C\[C@H](C)[C@H](O)[C@@H](C)[C@@H](O)[C@@H](C)[C@H](OC(C)=O)[C@@H]1C [RIFAMYCIN SV],remaining activity at 3.75 µM,[1]; Well no.=1987,97.9%
same,remaining activity at 1.25 µM,[2]; Well no.=1987,105%
COc1ccc([C@@H]2CC(=O)c3c(O)cc(O)cc3O2)cc1O [Hesperetin],remaining activity at 3.75 µM,[1]; Well no.=6630,104%
same,remaining activity at 1.25 µM,[2]; Well no.=6630,103%
O=C(O)c1cccnc1 [Niacin],remaining activity at 3.75 µM,[1]; Well no.=6401,96.9%
same,remaining activity at 1.25 µM,[2]; Well no.=6401,102%
CN1CCC[C@H]1c1cccnc1 [(-)-Nicotine],remaining activity at 3.75 µM,[1]; Well no.=3328,99.2%
same,remaining activity at 1.25 µM,[2]; Well no.=3328,96.5%
CC(C)c1cc(-c2ccc(F)c3ccccc23)nc(N)n1 [RS-127445],remaining activity at 3.75 µM,[1]; Well no.=4683,102%
same,remaining activity at 1.25 µM,[2]; Well no.=4683,106%
Nc1cccc2c1C(=O)N(C1CCC(=O)NC1=O)C2=O (stereo not drawn) [Pomalidomide],remaining activity at 3.75 µM,[1]; Well no.=4963,96.3%
same,remaining activity at 1.25 µM,[2]; Well no.=4963,100%
N#Cc1ccc(N2N=C3c4ccc(C(=O)O)cc4CC[C@@H]3[C@@H]2C2CCCC2)cc1Cl [PF-03882845],remaining activity at 3.75 µM,[1]; Well no.=6063,94.4%
same,remaining activity at 1.25 µM,[2]; Well no.=6063,96.4%
CC1=CC(=O)C2=C(C)CC[C@@H]3[C@H](OC(=O)[C@H]3C)[C@@H]12 [Leucomisine],remaining activity at 3.75 µM,[1]; Well no.=3248,96.8%
same,remaining activity at 1.25 µM,[2]; Well no.=3248,94.5%
CCN1C(=O)/C(=C/c2ccccc2)SC1=S [BTR-1],remaining activity at 3.75 µM,[1]; Well no.=7124,95.2%
same,remaining activity at 1.25 µM,[2]; Well no.=7124,99.8%
CN(C)Cc1cccc(N/C(=C2\C(=O)Nc3cc(C(N)=O)ccc32)c2ccccc2)c1 [BIX 02188],remaining activity at 3.75 µM,[1]; Well no.=5283,93.8%
same,remaining activity at 1.25 µM,[2]; Well no.=5283,96.6%
CC(C)(C)NCC(O)c1ccc(O)cc1Cl (stereo not drawn) [HOKU-81],remaining activity at 3.75 µM,[1]; Well no.=8051,96.3%
same,remaining activity at 1.25 µM,[2]; Well no.=8051,93%
C[C@@H](NCCCc1cccc(C(F)(F)F)c1)c1cccc2ccccc12 [Cinacalcet (hydrochloride)],remaining activity at 3.75 µM,[1]; Well no.=7426,104%
same,remaining activity at 1.25 µM,[2]; Well no.=7426,104%
CN1[C@@H](CC(=O)c2ccccc2)CCC[C@H]1C[C@H](O)c1ccccc1,remaining activity at 3.75 µM,[1]; Well no.=3438,97.7%
same,remaining activity at 1.25 µM,[2]; Well no.=3438,97.9%
N=C(N)NC(=O)Cc1c(Cl)cccc1Cl [Guanfacine (hydrochloride)],remaining activity at 3.75 µM,[1]; Well no.=6275,102%
same,remaining activity at 1.25 µM,[2]; Well no.=6275,101%
C[C@H]1CC[C@@H]2[C@@H](C)[C@H]3[C@H](C[C@H]4[C@@H]5CC[C@H]6C[C@@H](O)CC[C@]6(C)[C@H]5CC[C@]34C)N2C1 [Demissidine],remaining activity at 3.75 µM,[1]; Well no.=3202,107%
same,remaining activity at 1.25 µM,[2]; Well no.=3202,104%
C=CCSC[C@H](N)C(=O)O [S-Allyl-L-cysteine],remaining activity at 3.75 µM,[1]; Well no.=5435,97%
same,remaining activity at 1.25 µM,[2]; Well no.=5435,99.1%
O=C(O)c1ccc(Nc2ncc3c(n2)-c2ccc(Cl)cc2C(c2c(F)cccc2F)=NC3)cc1 [MLN8054],remaining activity at 3.75 µM,[1]; Well no.=4659,98.1%
same,remaining activity at 1.25 µM,[2]; Well no.=4659,105%
CN(C)CCOc1ccc(-c2nc(-c3ccncc3)c(-c3ccc4c(c3)CC/C4=N\O)[nH]2)cc1 [SB590885],remaining activity at 3.75 µM,[1]; Well no.=2749,99.9%
same,remaining activity at 1.25 µM,[2]; Well no.=2749,101%
COc1cc(CC(=O)O)ccc1O [Homovanillic acid],remaining activity at 3.75 µM,[1]; Well no.=6831,97%
same,remaining activity at 1.25 µM,[2]; Well no.=6831,96.9%
N[C@H](CCCCCP(=O)(O)O)C(=O)O [D(-)-2-Amino-7-phosphonoheptanoic acid],remaining activity at 3.75 µM,[1]; Well no.=352,98.1%
same,remaining activity at 1.25 µM,[2]; Well no.=352,96.5%
N[C@@H](CSCCB(O)O)C(=O)O [BEC (hydrochloride)],remaining activity at 3.75 µM,[1]; Well no.=8165,103%
same,remaining activity at 1.25 µM,[2]; Well no.=8165,105%
O=c1cc(C(Cl)(Cl)Cl)oc2ccc(Cl)cc12 [ST034307],remaining activity at 3.75 µM,[1]; Well no.=7185,95.4%
same,remaining activity at 1.25 µM,[2]; Well no.=7185,103%
NC(=O)c1ccccc1 [Benzamide],remaining activity at 3.75 µM,[1]; Well no.=358,95.9%
same,remaining activity at 1.25 µM,[2]; Well no.=358,96.5%
CC1=NN(c2ccc(C(=O)O)cc2)C(=O)/C1=C\c1ccc(-c2cc(C)c(C)cc2[N+](=O)[O-])o1 [C646],remaining activity at 3.75 µM,[1]; Well no.=5456,101%
same,remaining activity at 1.25 µM,[2]; Well no.=5456,98.3%
CCCNC(C)C(=O)Nc1ccccc1C (stereo not drawn) [Prilocaine hydrochloride],remaining activity at 3.75 µM,[1]; Well no.=1355,98.5%
same,remaining activity at 1.25 µM,[2]; Well no.=1355,97.2%
NCCCS(=O)(=O)O [3-Amino-1-propanesulfonic acid sodium],remaining activity at 3.75 µM,[1]; Well no.=301,98.1%
same,remaining activity at 1.25 µM,[2]; Well no.=301,98%
CCOC(=O)CCC(=O)O[C@H]1[C@H](O[C@@H]2[C@@H](C)[C@H](O[C@H]3C[C@@](C)(OC)[C@@H](O)[C@H](C)O3)[C@@H](C)C(=O)O[C@H](CC)[C@@](C)(O)[C@H](O)[C@@H](C)C(=O)[C@H](C)C[C@@]2(C)O)O[C@H](C)C[C@@H]1N(C)C [Erythromycin Ethylsuccinate],remaining activity at 3.75 µM,[1]; Well no.=5126,102%
same,remaining activity at 1.25 µM,[2]; Well no.=5126,100%
COc1ccc(-c2ccc(=N)n(CCCC(=O)O)n2)cc1 [SR-95531],remaining activity at 3.75 µM,[1]; Well no.=1325,98.9%
same,remaining activity at 1.25 µM,[2]; Well no.=1325,103%
Cc1ncc2ccccc2c1C#N [4-Cyano-3-methylisoquinoline],remaining activity at 3.75 µM,[1]; Well no.=2397,95.8%
same,remaining activity at 1.25 µM,[2]; Well no.=2397,97.4%
CO[C@@]12[C@H](COC(N)=O)C3=C(C(=O)C(C)=C(N)C3=O)N1C[C@@H]1N[C@@H]12 [Mitomycin C],remaining activity at 3.75 µM,[1]; Well no.=1672,110%
same,remaining activity at 3.75 µM,[1]; Well no.=3563,100%
same,remaining activity at 3.75 µM,[1]; Well no.=7364,102%
same,remaining activity at 1.25 µM,[2]; Well no.=1672,110%
same,remaining activity at 1.25 µM,[2]; Well no.=3563,98.9%
same,remaining activity at 1.25 µM,[2]; Well no.=7364,98.5%
"O=C1NC(=O)c2c1c1c3ccccc3n3c1c1c2c2ccccc2n1C1CCC3O1 [9,10,11,12-Tetrahydro-9,12-epoxy-1H-diindolo[1,2,3-fg:3',2',1'-kl]pyrrolo[3,4-i][1,6]benzodiazocine-1,3(2H)-dione]",remaining activity at 3.75 µM,[1]; Well no.=2578,101%
same,remaining activity at 1.25 µM,[2]; Well no.=2578,99%
CC(C)NC[C@@H](O)COc1ccc(CC(N)=O)cc1 [R(+)-Atenolol],remaining activity at 3.75 µM,[1]; Well no.=302,94.8%
same,remaining activity at 1.25 µM,[2]; Well no.=302,94.7%
